# Patent publication US7160684B2, “Methods of selecting compounds for modulation of bladder function” (Wyeth, priority 2000, dated 2007)
# Read-outs that look alike come from different tables or passages of the source.
# Key:
# [1] = test system: cultured human bladder smooth muscle cells; experiment: Voltage clamp recording of outward current, human cells; type: cell-based; conditions: human bladder smooth muscle cells, FIG. 3d
# Description: Single cell recordings are performed with a List-Medical EPC-7 patch clamp amplifier (Adams & List Assoc., Westbury, N.Y.). Pipette electrodes had tip resistances of 2–4 MΩ and are filled with the following composition (mM): KCl (126.0), MgCl2.6H2O (4.5), ATP Mg salt (4.0), GTP tris salt (0.3), creatine PO4 (14.0), D-glucose (9.0), EGTA (9.0), HEPES (9.0). The pH is adjusted to 7.4 with KOH. Signals are acquired (3 kHz high frequency cut-off, 12 bit resolution) using a 586-based personal computer.
# Whole cell recordings are made using broken patch access. Currents are evoked using either voltage steps (Vh=−50; Vt=−60 to 40 mV) or voltage ramps (−60 to 40 mV at 3.3 mV/sec.). The exact voltage clamp protocols are well known in the art. After stability is achieved control currents are recorded. Next, test compound is added to the superfusate. Currents are recorded for 5 to 10 minutes or until compound effects reach steady state. This is followed either by washout or addition of antagonists (linopirdine, XE-991) to the superfusate.
# Cellular electrophysiological studies were conducted using both voltage and current clamp techniques (Hammill, O., P., Marty, A., Neher, E., Sakmann, B. & Sigworth, F. J.: Improved patch-clamp techniques for high-resolution current recordings from cells and cell-free membrane patches. Pflugers Arch 391: 85–100 (1981)) from Sprague-Dawley rat (200–400 grams) bladders as previously described, (Wojdan, A., Freeden, C., Woods, M., Oshiro, G., Spinelli, W. et al., J. Pharmacol Exp Therap 289: 1410–1418 (1999)) and from a human bladder, primary cell culture (Colnetics, San Diego, Calif.). In rat cells, the average, control resting membrane potential (RMP) was −29.0±4.5 mV. […]
# Rat bladder strips were isolated and prepared as previously described (Wojdan, A., Freeden, C., Woods, M., Oshiro, G., Spinelli, W. et al., J Pharmacol ExpTherap 289:1410–1418 (1999)). […] Message for KCNQ subunits was probed using quantitative rtPCR on an ABI PRISM 7700 Sequence Detection System (TAQMAN). […]
# [2] = test system: isolated rat bladder strips; experiment: Isolated rat bladder strip contraction; conditions: Rattus norvegicus, n=4
# Description: Male Sprague-Dawley rats (200–400 grams) are euthanized by CO2 inhalation and exsanguination. Their urinary bladders are rapidly removed and placed in […] physiological salt solution (PSS) that contained the following (mM): NaCl (118.4), KCl (5), CaCl2 (2.5), MgSO4 (1.2), KH2PO4 (1.2), NaHCO3 (24.9) and D-glucose (11.1) gassed with O2/CO2 (95% /5%) to achieve a pH of 7.4. The dome of the bladder is isolated from the trigon region and this tissue is then cut into 4–5 mm wide by 10 mm long strips. One end is secured to the bottom of a water jacketed tissue bath and the other to a GRASS isometric force transducer (Grass Instruments, Quincy, Mass.). Tissues are pretensioned (0.25 to 0.5 grams), and after 30 minutes of equilibration are contracted with an additional 15 mM KCl (total of 20 mM) and again allowed to equilibrate until the preparations are contracting steadily. Any of a variety of compounds are administered directly into the tissue baths as sequential concentrations. Transducer signals are digitized (12 bit resolution) and analyzed on-line using a 586-based computer and custom software. The area under the contraction curve (AUC) is used as a measure of contractility since the spontaneous bladder contractions are irregular in amplitude and frequency. A 5-minute AUC value is taken 30 minutes after administration of each compound concentration to the tissue bath.
# We isolated rat bladder strips from male Sprague-Dawley rats as previously described, (Wojdan, A., Freeden, C., Woods, M., Oshiro, G., Spinelli, W. et al., J Pharmacol Exp Therap 289: 1410–1418 (1999)) and precontracted them with 20 mM KCl. The KCNQ channel agonist retigabine, was added to the tissue bath in increasing concentrations, and area under the contraction curve was analyzed.
# In another study, isolated rat bladder strips were precontracted with 60 mM KCl (FIG. 1).
# The difference in IC50s between 20 and 60 mM KCl depolarizations are consistent with a potassium channel opening mechanism.
# Rat bladder strips were isolated and prepared as previously described (Wojdan, A., Freeden, C., Woods, M., Oshiro, G., Spinelli, W. et al., J Pharmacol ExpTherap 289:1410–1418 (1999)). Preparations were contracted with either 20 or 60 mM KCl, or 200 nM carbachol. A five minute area under the contraction curve was acquired 20 minutes after addition of each concentration of retigabine using a 12 bit D/A and a 586 based personal computer running custom software. Message for KCNQ subunits was probed using quantitative rtPCR on an ABI PRISM 7700 Sequence Detection System (TAQMAN). Forward and reverse primers and TAQMAN probes were designed using published RNA sequences for human KCNQ1–5 and rat KCNQ 1–4 listed within the NCBI data base. Since no rat sequence for KCNQ5 were currently published, probes and primers were designed by BLAST analysis of rat Expressed Sequence Tags (EST) using the known mouse KNCQ5 sequence. From homologous EST sequences, a contiguous sequence of 384 base pairs was constructed. Probes and primers were designed against this sequence. BLAST analysis of our rat KCNQ5 probes and primer were selective for mouse and human KCNQ5 sequences. PCR products were confirmed by gel electrophoresis (data not shown). Cells for electrophysiology were prepared from rat bladder smooth muscle as previously described (Wojdan et al., 1999). Human bladder smooth muscle cells were obtained from Clonetics, San Diego, Calif. […]
structure (smiles),measurement,setting,value
"CCOC(=O)Nc1ccc(NCc2ccc(F)cc2)cc1N [retigabine, N-[2-amino-4-(4-fluorobenzylamino)-phenyl]carbamic acid ethyl ester]",effect on outward current,[1],increased outward currents
same,effect on outward current,[1]; listed as Retigabine,increased an outward current
same,IC50,"[2]; read-out: IC50 for inhibition of isolated rat bladder strip contractions, precontracted with 20 mM KCl, area under the contraction curve",1.4 ± 0.1 µM
same,IC50,"[2]; read-out: IC50 for inhibition of isolated rat bladder strip contractions, precontracted with 60 mM KCl",21.8 ± 0.8 µM
